Measured values: PubChem BioAssay AID248 (DTP/NCI, 2004)
“And” between values parts separate entries of the source, which are not always exact repeats. Equal entries are not always repeated. Toxic doses and inconclusive results are not listed.

System: L1210 leukemia ip in BDF1 mice, survival T/C
Assay: NCI In Vivo Anticancer Drug Screen. Data for tumor model L1210 Leukemia (intraperitoneal) in B6D2F1 (BDF1) mice
Details: endpoint: mean survival time, higher = longer survival
Summary of the method: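 Survival endpoint. Drug-treated group vs vehicle group, expressed as T divided by C. Tumor passaged by transplantation.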

[1] = dose: 50.0 mg/kg/injection, schedule: Q01DX009 (ip), vehicle: saline with Tween-80
[2] = dose: 100.0 mg/kg/injection, schedule: Q04DX003 (ip), vehicle: Klucel (hydroxypropylcellulose) (HPC)
[3] = dose: 200.0 mg/kg/injection, schedule: Q04DX003 (ip), vehicle: Klucel (hydroxypropylcellulose) (HPC)
[4] = dose: 400.0 mg/kg/injection, schedule: Q04DX003 (ip), vehicle: Klucel (hydroxypropylcellulose) (HPC)
[5] = dose: 100.0 mg/kg/injection, schedule: Q01DX009 (ip), vehicle: saline with Tween-80
[6] = dose: 100.0 mg/kg/injection, schedule: Q04DX003 (ip), vehicle: saline with Tween-80
[7] = dose: 200.0 mg/kg/injection, schedule: Q01DX009 (ip), vehicle: saline with Tween-80
[8] = dose: 200.0 mg/kg/injection, schedule: Q04DX003 (ip), vehicle: saline with Tween-80
[9] = dose: 400.0 mg/kg/injection, schedule: Q04DX003 (ip), vehicle: saline with Tween-80
[10] = dose: 100.0 mg/kg/injection, schedule: Q01DX001 (ip), vehicle: carboxymethylcellulose (CMC)
[11] = dose: 200.0 mg/kg/injection, schedule: Q01DX001 (ip), vehicle: carboxymethylcellulose (CMC)
[12] = dose: 400.0 mg/kg/injection, schedule: Q01DX001 (ip), vehicle: carboxymethylcellulose (CMC)
[13] = dose: 100.0 mg/kg/injection, schedule: Q01DX001 (ip), vehicle: Klucel (hydroxypropylcellulose) (HPC)
[14] = dose: 200.0 mg/kg/injection, schedule: Q01DX001 (ip), vehicle: Klucel (hydroxypropylcellulose) (HPC)
[15] = dose: 50.0 mg/kg/injection, schedule: Q01DX009 (ip), vehicle: Klucel (hydroxypropylcellulose) (HPC)
[16] = dose: 100.0 mg/kg/injection, schedule: Q01DX009 (ip), vehicle: Klucel (hydroxypropylcellulose) (HPC)
[17] = dose: 200.0 mg/kg/injection, schedule: Q01DX009 (ip), vehicle: Klucel (hydroxypropylcellulose) (HPC)
[18] = dose: 400.0 mg/kg/injection, schedule: Q01DX009 (ip), vehicle: saline with Tween-80

COC(=O)NC1CC(OC2CC(O)(C(C)=O)Cc3c(O)c4c(c(O)c32)C(=O)c2c(OC)cccc2C4=O)OC(C)C1O (configuration not stated)
T/C (dose: 2.0 mg/kg/injection, schedule: Q04DX003 (ip), vehicle: water): 105 % of control | T/C (dose: 3.12 mg/kg/injection, schedule: Q01DX009 (ip), vehicle: saline with Tween-80): 103 % of control | T/C (dose: 4.0 mg/kg/injection, schedule: Q04DX003 (ip), vehicle: water): 106 % of control | T/C (dose: 6.25 mg/kg/injection, schedule: Q01DX009 (ip), vehicle: saline with Tween-80): 178 % of control | T/C (dose: 8.0 mg/kg/injection, schedule: Q04DX003 (ip), vehicle: water): 112 % of control | T/C (dose: 12.5 mg/kg/injection, schedule: Q01DX009 (ip), vehicle: saline with Tween-80): 124 % of control | T/C (dose: 16.0 mg/kg/injection, schedule: Q04DX003 (ip), vehicle: water): 109 % of control and 111 % of control | T/C (dose: 18.75 mg/kg/injection, schedule: Q04DX003 (ip), vehicle: saline with Tween-80): 112 % of control | T/C (dose: 25.0 mg/kg/injection, schedule: Q01DX009 (ip), vehicle: saline with Tween-80): 120 % of control | T/C (dose: 32.0 mg/kg/injection, schedule: Q04DX003 (ip), vehicle: water): 110 % of control | T/C (dose: 37.5 mg/kg/injection, schedule: Q04DX003 (ip), vehicle: saline with Tween-80): 118 % of control | T/C [1]: 122 % of control | T/C (dose: 64.0 mg/kg/injection, schedule: Q04DX003 (ip), vehicle: water): 110 % of control | T/C (dose: 75.0 mg/kg/injection, schedule: Q04DX003 (ip), vehicle: saline with Tween-80): 118 % of control | T/C (dose: 150.0 mg/kg/injection, schedule: Q04DX003 (ip), vehicle: saline with Tween-80): 115 % of control | T/C (dose: 125.0 micrograms/kg/injection, schedule: Q04DX003 (ip), vehicle: water): 102 % of control | T/C (dose: 250.0 micrograms/kg/injection, schedule: Q04DX003 (ip), vehicle: water): 107 % of control | T/C (dose: 500.0 micrograms/kg/injection, schedule: Q04DX003 (ip), vehicle: water): 101 % of control | T/C (dose: 1000.0 micrograms/kg/injection, schedule: Q04DX003 (ip), vehicle: water): 103 % of control | T/C (dose: 2000.0 micrograms/kg/injection, schedule: Q04DX003 (ip), vehicle: water): 106 % of control

O=C(O)Cc1nc2ccccc2n1CC(=O)O
T/C (dose: 100.0 mg/kg/injection, schedule: Q04DX002 (ip), vehicle: Klucel (hydroxypropylcellulose) (HPC)): 96 % of control | T/C (dose: 200.0 mg/kg/injection, schedule: Q04DX002 (ip), vehicle: Klucel (hydroxypropylcellulose) (HPC)): 93 % of control | T/C (dose: 400.0 mg/kg/injection, schedule: Q04DX002 (ip), vehicle: Klucel (hydroxypropylcellulose) (HPC)): 100 % of control

OC(/C=C/c1ccccc1)(c1ccccc1)c1ccccc1
T/C [2]: 94 % of control | T/C [3]: 93 % of control | T/C [4]: 96 % of control

C[n+]1cccc(C(=O)N/N=C/CCc2ccccc2)c1
T/C (dose: 25.0 mg/kg/injection, schedule: Q04DX003 (ip), vehicle: saline with Tween-80): 95 % of control | T/C (dose: 50.0 mg/kg/injection, schedule: Q01DX001 (ip), vehicle: saline with Tween-80): 101 % of control | T/C [1]: 120 % of control | T/C (dose: 50.0 mg/kg/injection, schedule: Q04DX003 (ip), vehicle: saline with Tween-80): 90 % of control | T/C (dose: 100.0 mg/kg/injection, schedule: Q01DX001 (ip), vehicle: saline with Tween-80): 103 % of control | T/C [5]: 106 % of control | T/C [6]: 92 % of control | T/C (dose: 200.0 mg/kg/injection, schedule: Q01DX001 (ip), vehicle: saline with Tween-80): 97 % of control | T/C [7]: 95 % of control | T/C [8]: 94 % of control | T/C (dose: 400.0 mg/kg/injection, schedule: Q01DX001 (ip), vehicle: saline with Tween-80): 101 % of control

CCN(CC)C(=O)Nc1cccc(O)c1
T/C [6]: 94 % of control | T/C [8]: 91 % of control | T/C [9]: 93 % of control

O=C1c2ccccc2-c2cccc(Cl)c21
T/C [10]: 101 % of control | T/C [11]: 93 % of control | T/C [12]: 104 % of control

O=[N+]([O-])/C=C/c1cccs1
T/C [13]: 98 % of control | T/C [14]: 103 % of control

Cc1cc2no[n+]([O-])c2cc1C
T/C [15]: 108 % of control | T/C [13]: 100 % of control | T/C [16]: 106 % of control | T/C [14]: 96 % of control | T/C [17]: 114 % of control

CCCCCCCCCCCCCCC(=O)N/N=C/c1ccc([N+](=O)[O-])s1
T/C [5]: 91 % of control | T/C [7]: 88 % of control | T/C [18]: 100 % of control

CCN(CC)C(=O)Nc1ccccc1F
T/C [16]: 104 % of control | T/C [17]: 98 % of control | T/C (dose: 400.0 mg/kg/injection, schedule: Q01DX009 (ip), vehicle: Klucel (hydroxypropylcellulose) (HPC)): 119 % of control

CC(=O)[O][Pb]([c]1ccccc1)([c]1ccccc1)[c]1ccccc1
T/C (dose: 0.5 mg/kg/injection, schedule: Q01DX015 (ip), vehicle: carboxymethylcellulose (CMC)): 112 % of control | T/C (dose: 1.0 mg/kg/injection, schedule: Q01DX015 (ip), vehicle: carboxymethylcellulose (CMC)): 90 % of control | T/C (dose: 2.0 mg/kg/injection, schedule: Q01DX015 (ip), vehicle: carboxymethylcellulose (CMC)): 87 % of control | T/C (dose: 4.0 mg/kg/injection, schedule: Q01DX015 (ip), vehicle: carboxymethylcellulose (CMC)): 96 % of control

Nc1cccc2cccc([N+](=O)[O-])c12
T/C [10]: 100 % of control | T/C (dose: 100.0 mg/kg/injection, schedule: Q01DX009 (ip), vehicle: saline): 87 % of control | T/C [11]: 94 % of control | T/C (dose: 200.0 mg/kg/injection, schedule: Q01DX009 (ip), vehicle: saline): 94 % of control | T/C [12]: 96 % of control

Oc1ccc2ccccc2c1C(c1ccccc1)N1CCCCC1 (configuration not stated)
T/C [13]: 94 % of control | T/C [14]: 97 % of control | T/C (dose: 400.0 mg/kg/injection, schedule: Q01DX001 (ip), vehicle: Klucel (hydroxypropylcellulose) (HPC)): 103 % of control

CCCCCCC(C)O[Si](C)c1ccccc1C (configuration not stated)
T/C [5]: 98 % of control | T/C [6]: 98 % of control | T/C [7]: 100 % of control | T/C [8]: 98 % of control | T/C [18]: 111 % of control | T/C [9]: 98 % of control

CCOC(=O)c1ccc(N)c(C(O)(C(F)(F)F)C(F)(F)F)c1
T/C [5]: 106 % of control | T/C [7]: 95 % of control | T/C [18]: 104 % of control

O=C(Nc1cccc(C(F)(F)F)c1)Nc1ccc(Cl)c(Cl)c1
T/C (dose: 50.0 mg/kg/injection, schedule: Q01DX001 (ip), vehicle: carboxymethylcellulose (CMC)): 96 % of control | T/C [10]: 102 % of control | T/C [11]: 98 % of control | T/C [12]: 113 % of control

COc1cc2cccc(OC)c(=O)c2c(O)c1OC
T/C (dose: 25.0 mg/kg/injection, schedule: Q01DX009 (ip), vehicle: Klucel (hydroxypropylcellulose) (HPC)): 92 % of control | T/C [15]: 96 % of control | T/C [16]: 92 % of control and 106 % of control | T/C [2]: 101 % of control | T/C [3]: 92 % of control | T/C [4]: 99 % of control

CCCCCCCCCCCCCCCCn1cnc2c(N)ncnc21
T/C (dose: 12.5 mg/kg/injection, schedule: Q01DX005 (ip), vehicle: other): 104 % of control | T/C (dose: 25.0 mg/kg/injection, schedule: Q01DX005 (ip), vehicle: other): 96 % of control | T/C (dose: 50.0 mg/kg/injection, schedule: Q01DX005 (ip), vehicle: other): 101 % of control | T/C (dose: 100.0 mg/kg/injection, schedule: Q01DX005 (ip), vehicle: other): 96 % of control | T/C (dose: 200.0 mg/kg/injection, schedule: Q01DX005 (ip), vehicle: other): 95 % of control

Cc1ccnc(NS(=O)(=O)c2ccc(N=Nc3cc(N=Nc4ccccc4)c(N)nc3N)cc2)n1
T/C [10]: 105 % of control | T/C [11]: 102 % of control

CCOc1ccc(-n2c(=O)c(N=Nc3ccccc3OC)c(O)n(-c3ccccc3OC)c2=S)cc1
T/C (dose: 50.0 mg/kg/injection, schedule: Q01DX001 (ip), vehicle: Klucel (hydroxypropylcellulose) (HPC)): 91 % of control | T/C [13]: 100 % of control | T/C [14]: 87 % of control
